The record followed here is PubChem BioAssay AID248 (DTP/NCI, 2004).

Where “and” joins values, the source holds several entries; their conditions need not be identical. Identical values can stand only once. Inconclusive results and toxic doses are left out.

The assay has as its system L1210 leukemia ip in BDF1 mice, survival T/C. Nature of the assay: NCI In Vivo Anticancer Drug Screen. Data for tumor model L1210 Leukemia (intraperitoneal) in B6D2F1 (BDF1) mice. The conditions noted are these: endpoint: mean survival time, higher = longer survival. The procedure, abridged: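 Antitumor effect is assessed in tumor-bearing animals. Survival in the compound arm is compared with a vehicle-dosed control arm and expressed as their quotient.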

Where [1] appears, read: dose: 200.0 mg/kg/injection, schedule: Q04DX002 (ip), vehicle: saline with Tween-80.
The mark [2] stands for this setting: dose: 400.0 mg/kg/injection, schedule: Q04DX002 (ip), vehicle: saline with Tween-80.
The mark [3] stands for this setting: dose: 100.0 mg/kg/injection, schedule: Q01DX009 (ip), vehicle: saline with Tween-80.
Setting [4] is: dose: 200.0 mg/kg/injection, schedule: Q01DX009 (ip), vehicle: saline with Tween-80.
Setting [5] is: dose: 50.0 mg/kg/injection, schedule: Q01DX009 (ip), vehicle: saline.
The mark [6] stands for this setting: dose: 100.0 mg/kg/injection, schedule: Q01DX009 (ip), vehicle: saline.
[7] abbreviates: dose: 100.0 mg/kg/injection, schedule: Q04DX003 (ip), vehicle: saline.
The mark [8] stands for this setting: dose: 200.0 mg/kg/injection, schedule: Q01DX009 (ip), vehicle: saline.
The mark [9] stands for this setting: dose: 200.0 mg/kg/injection, schedule: Q04DX003 (ip), vehicle: saline.
Where [10] appears, read: dose: 100.0 mg/kg/injection, schedule: Q04DX002 (ip), vehicle: Klucel (hydroxypropylcellulose) (HPC).
The mark [11] stands for this setting: dose: 200.0 mg/kg/injection, schedule: Q04DX002 (ip), vehicle: Klucel (hydroxypropylcellulose) (HPC).
Where [12] appears, read: dose: 400.0 mg/kg/injection, schedule: Q04DX002 (ip), vehicle: Klucel (hydroxypropylcellulose) (HPC).
Setting [13] is: dose: 100.0 mg/kg/injection, schedule: Q04DX003 (ip), vehicle: saline with Tween-80.
[14] abbreviates: dose: 200.0 mg/kg/injection, schedule: Q04DX003 (ip), vehicle: saline with Tween-80.
Where [15] appears, read: dose: 400.0 mg/kg/injection, schedule: Q04DX003 (ip), vehicle: saline with Tween-80.
[16] abbreviates: dose: 200.0 mg/kg/injection, schedule: Q01DX009 (ip), vehicle: Klucel (hydroxypropylcellulose) (HPC).
[17] abbreviates: dose: 50.0 mg/kg/injection, schedule: Q01DX009 (ip), vehicle: saline with Tween-80.

As for `CC(=O)CCC[CH2][Sn]([c]1ccccc1)([c]1ccccc1)[c]1ccccc1`, the T/C runs as follows: (dose: 100.0 mg/kg/injection, schedule: Q04DX002 (ip), vehicle: saline with Tween-80) 102 % of control; under setting [1], 91 % of control; under setting [2], 97 % of control.

As for `O=[N+]([O-])c1ccc(C(SCc2ccccc2)SCc2ccccc2)cc1`, the T/C is 97 % of control (dose: 75.0 mg/kg/injection, schedule: Q01DX001 (ip), vehicle: carboxymethylcellulose (CMC)); 100 % of control (dose: 150.0 mg/kg/injection, schedule: Q01DX001 (ip), vehicle: carboxymethylcellulose (CMC)); 97 % of control (dose: 300.0 mg/kg/injection, schedule: Q01DX001 (ip), vehicle: carboxymethylcellulose (CMC)).

Regarding `CC(CCC(C)C(=O)O)C(=O)O` (centres undefined), the T/C is 103 % of control under setting [3]; 102 % of control under setting [4]; 103 % of control (dose: 400.0 mg/kg/injection, schedule: Q01DX009 (ip), vehicle: saline with Tween-80).

Take `CCCCCCCCOP(=O)(N1CC1)N1CC1`: the T/C was 94 % of control (dose: 1.0 mg/kg/injection, schedule: Q01DX015 (ip), vehicle: saline); 95 % of control (dose: 2.0 mg/kg/injection, schedule: Q01DX015 (ip), vehicle: saline); 97 % of control (dose: 4.0 mg/kg/injection, schedule: Q01DX015 (ip), vehicle: saline); 119 % of control (dose: 8.0 mg/kg/injection, schedule: Q01DX001 (ip), vehicle: saline); 163 % of control (dose: 8.2 mg/kg/injection, schedule: Q01DX015 (ip), vehicle: saline); 165 % of control and 166 % of control (dose: 10.5 mg/kg/injection, schedule: Q01DX015 (ip), vehicle: saline). The T/C runs as follows: (dose: 12.4 mg/kg/injection, schedule: Q01DX015 (ip), vehicle: saline) 204 % of control; (dose: 16.0 mg/kg/injection, schedule: Q01DX015 (ip), vehicle: saline) 209 % of control; (dose: 18.0 mg/kg/injection, schedule: Q01DX015 (ip), vehicle: saline) 235 % of control; (dose: 18.6 mg/kg/injection, schedule: Q01DX015 (ip), vehicle: saline) 214 % of control; (dose: 28.0 mg/kg/injection, schedule: Q01DX001 (ip), vehicle: saline) 153 % of control; (dose: 33.5 mg/kg/injection, schedule: Q01DX015 (ip), vehicle: saline) 207 % of control. The T/C by setting is: (dose: 44.4 mg/kg/injection, schedule: Q01DX001 (ip), vehicle: saline) 150 % of control; (dose: 50.0 mg/kg/injection, schedule: Q01DX015 (ip), vehicle: saline) 92 % of control; (dose: 66.7 mg/kg/injection, schedule: Q01DX001 (ip), vehicle: saline) 157 % of control and 170 % of control; (dose: 150.0 mg/kg/injection, schedule: Q01DX001 (ip), vehicle: saline) 213 % of control.

Take `CCOC(=O)Cc1cc(Cl)c2ccc(Cl)cc2n1`: the T/C is, setting by setting: under setting [5], 96 % of control; under setting [6], 95 % of control; under setting [7], 101 % of control; under setting [8], 90 % of control; under setting [9], 95 % of control; (dose: 400.0 mg/kg/injection, schedule: Q04DX003 (ip), vehicle: saline) 92 % of control.

For the compound `CN(C)C1CS(=O)(=O)C1C1CS(=O)(=O)C1` (centres undefined), the T/C under setting [10] is 89 % of control, the T/C under setting [11] is 86 % of control and the T/C under setting [12] is 96 % of control.

Regarding `CCOCCc1ccncc1`, the T/C runs as follows: under setting [5], 101 % of control; under setting [6], 94 % of control; under setting [8], 90 % of control.

For the compound `CC(C)=CC#N`, the T/C under setting [13] is 90 % of control, the T/C under setting [14] is 103 % of control and the T/C under setting [15] was 101 % of control.

Take `C=C1C(=O)OC2C1C(OC(=O)/C(=C/C)COC(C)=O)CC1(CO1)C1C(OC(=O)/C(=C/C)CO)C3OC3(C)C21` (centres undefined): the T/C was 110 % of control (dose: 3.12 mg/kg/injection, schedule: Q01DX009 (ip), vehicle: alcohol); 104 % of control (dose: 6.25 mg/kg/injection, schedule: Q01DX009 (ip), vehicle: alcohol); 96 % of control (dose: 12.5 mg/kg/injection, schedule: Q01DX009 (ip), vehicle: alcohol).

In the case of `Cn1nc(CC(=O)O)c(C(N)=O)c1N`, the T/C reads like this: (dose: 12.5 mg/kg/injection, schedule: Q01DX009 (ip), vehicle: Klucel (hydroxypropylcellulose) (HPC)) 93 % of control; (dose: 25.0 mg/kg/injection, schedule: Q01DX009 (ip), vehicle: Klucel (hydroxypropylcellulose) (HPC)) 101 % of control; (dose: 50.0 mg/kg/injection, schedule: Q01DX009 (ip), vehicle: Klucel (hydroxypropylcellulose) (HPC)) 96 % of control and 102 % of control; under setting [16], 98 % of control.

On to `Cn1c(=O)c2c(ncn2CC[n+]2cccc(C(N)=O)c2)n(C)c1=O`, for which the T/C under setting [7] is 101 % of control and the T/C under setting [9] was 97 % of control.

For `O=C1CCc2c(Cl)sc(Cl)c21`, the T/C runs as follows: under setting [17], 91 % of control; under setting [3], 88 % of control; under setting [4], 96 % of control.

For the compound `Nc1cccc2c1C(=O)c1cc(Cl)c(Cl)cc1C2=O`, the T/C is, setting by setting: under setting [17], 104 % of control; under setting [3], 97 % of control; under setting [4], 89 % of control.

On to `CCO/C=N\c1c(C#N)c(CC#N)nn1C`, for which the T/C was 102 % of control under setting [10], 98 % of control under setting [11] and 102 % of control under setting [12].

On to `O=c1[nH]cnc2ccc([N+](=O)[O-])cc12`, for which the T/C was 101 % of control (dose: 50.0 mg/kg/injection, schedule: Q04DX003 (ip), vehicle: Klucel (hydroxypropylcellulose) (HPC)) and 103 % of control (dose: 100.0 mg/kg/injection, schedule: Q04DX003 (ip), vehicle: Klucel (hydroxypropylcellulose) (HPC)).

Take `Nc1nc(N)c2cc(CNc3ccc(C(=O)NC(CCCC(=O)O)C(=O)O)cc3)cnc2n1` (centres undefined): the T/C under setting [13] was 158 % of control and 175 % of control; the T/C under setting [14] was 154 % of control; the T/C under setting [15] is 87 % of control.

In the case of `CC(C)(C)c1cc(N)cc(C(C)(C)C)c1O`, the T/C is, setting by setting: under setting [1], 87 % of control; under setting [2], 90 % of control.

Regarding `COC(=O)c1ccc(C(=O)O)nc1`, the T/C is, setting by setting: (dose: 100.0 mg/kg/injection, schedule: Q01DX009 (ip), vehicle: Klucel (hydroxypropylcellulose) (HPC)) 104 % of control; under setting [16], 94 % of control; (dose: 400.0 mg/kg/injection, schedule: Q01DX009 (ip), vehicle: Klucel (hydroxypropylcellulose) (HPC)) 102 % of control.

As for `CC(C)c1ccc(NC(=S)NC(=O)c2ccccc2)cc1`, the T/C is, setting by setting: (dose: 100.0 mg/kg/injection, schedule: Q04DX002 (ip), vehicle: gum acacia) 103 % of control; (dose: 200.0 mg/kg/injection, schedule: Q04DX002 (ip), vehicle: gum acacia) 100 % of control; (dose: 400.0 mg/kg/injection, schedule: Q04DX002 (ip), vehicle: gum acacia) 92 % of control.

On to `CC1(C)Cc2cccc(OC(N)=O)c2O1`, for which the T/C by setting is: (dose: 1.56 mg/kg/injection, schedule: Q04DX003 (ip), vehicle: Klucel (hydroxypropylcellulose) (HPC)) 94 % of control; (dose: 3.13 mg/kg/injection, schedule: Q04DX003 (ip), vehicle: Klucel (hydroxypropylcellulose) (HPC)) 103 % of control; (dose: 6.25 mg/kg/injection, schedule: Q04DX003 (ip), vehicle: Klucel (hydroxypropylcellulose) (HPC)) 104 % of control.

For `CC(=O)N(C)c1ccc(S(=O)(=O)F)cc1`, the T/C runs as follows: (dose: 100.0 mg/kg/injection, schedule: Q01DX001 (ip), vehicle: Klucel (hydroxypropylcellulose) (HPC)) 103 % of control; (dose: 200.0 mg/kg/injection, schedule: Q01DX001 (ip), vehicle: Klucel (hydroxypropylcellulose) (HPC)) 103 % of control.

As to `CC(=O)Oc1ccc(CCN(C)C2CC3CCC2(C)C3(C)C)cc1OC(C)=O` (centres undefined), the T/C is, setting by setting: (dose: 100.0 mg/kg/injection, schedule: Q01DX001 (ip), vehicle: saline) 110 % of control; (dose: 200.0 mg/kg/injection, schedule: Q01DX001 (ip), vehicle: saline) 93 % of control; (dose: 400.0 mg/kg/injection, schedule: Q01DX001 (ip), vehicle: saline) 100 % of control.
